Measurements as given in patent US20240425710A1, “PEPTIDE-BASED BIOINK COMPOSITIONS” (Ramot at Tel-Aviv University Ltd., priority 2022, published 2024).
The star is where a group is joined. Fmoc = O=C(OCC1c2ccccc2-c2ccccc21)*

Assays:
Type in all cases: physicochemical
[1] = TEM imaging of hydrogel fibrils; conditions: hydrogels 5 g·L−1
Protocol: Transmission electron microscopy (TEM): Samples (10 μl) were placed on copper grids (400 mesh) covered with a carbon-stabilized Formvar film (EMS, BNFFA1000-Cu). After 2 minutes, excess gel was removed, and the grids were negatively stained with 10 μl of UranylLess staining solution for 1 minute. Finally, excess fluid was removed, and the samples were viewed in a JEM 1400plus electron microscope operating at 80 kV.

[2] = Hydrogel formation, inverted tubes after overnight gelation; conditions: single peptide, 5 g·L−1 in water from DMSO stock
Protocol: Preparation of hydrogels: Stock solutions of each of Fmoc-FF, PepA and PepB were prepared by dissolving the respective peptides in dimethyl sulfoxide (DMSO) at a concentration of 100 gram/liter (g·L^−1). The hydrogels were prepared by diluting the stock solution in double distilled water to a final concentration of 5 grams/Liter (5 g·L^−1), to thereby obtain a hydrogel formulation. The mixture was vortexed for 2 seconds and then incubated at room temperature until gelation occurred, thereby providing a hydrogel bioink composition.
Hydrogels made of a single peptide and hybrid hydrogels made of two peptides were prepared using the solvent switch method by dissolving the monomers in DMSO and then diluting the stock solutions into water to a final concentration of 5 g-L.

[3] = Time sweep rheology of peptide hydrogels and hybrid hydrogels; conditions: 5 Hz; for G′/G″ / G′ (storage modulus) / G″ (loss modulus): hydrogels 5 g·L−1, time sweep 0.5% strain; for G′ (storage modulus): after 4 hours of gelation; for G′ (storage modulus) / G″ (loss modulus): room temperature
Protocol: Rheological measurements: Rheological analysis was performed using an AR-G2 controlled rheometer (TA Instruments, New Castle, DA, USA). Oscillatory strain (0.01-100%) and frequency sweep (0.01-100 Hz) were conducted on 100 μL samples of pre gelated disks, 8 mm in diameter. The measurement was conducted with an 8 mm geometry (resulting in a gap size of 1 mm) at room temperature, in order to define the viscoelastic region in which the oscillatory test was performed.
Time-sweep oscillatory analyses used a constant a frequency of 5 Hz and a strain of 0.5%. Freshly prepared samples (220 μL) were placed under a 20 mm parallel plate geometry (resulting in a gap of 0.6 mm) at room temperature to determine the G′ (storage modulus) and G″, (loss modulus) for each sample.
The in situ kinetics of the hydrogels formation and their mechanical properties were characterized by time sweep measurements over 4 hours at a fixed strain of 0.5% and frequency of 5 Hz, and the results are presented in FIGS. 3A-B.

[4] = Absorbance kinetics of the hydrogel formation (turbidity at 400 nm)
Protocol: Absorbance kinetics of the hydrogel formation: Samples of 100 μL of Fmoc-FF, PegA, PepB formulations and the co-assembled hydrogels (bioink compositions) were placed into a 96-well plate. Absorbance at 400 nm was measured every 30 seconds using a TECAN Infinite M2000PRO plate reader for a total of 4 hours.
To further evaluate the impact of co-assembly on gelation kinetics, the absorbance spectra of the hybrid hydrogels compared to the Fmoc-FF hydrogel at 400 nm was monitored over time and the results are presented in FIGS. 8A-B.

| Substance | fibril diameter [1] [nm] | hydrogel formation [2] | G′/G″ [3] | G′ (storage modulus) [3] [Pa] | G″ (loss modulus) [3] [Pa] | time to form a clear hydrogel (absorbance drop) ([4]; absorbance at 400 nm monitored over time) | OD value reached ([4]; absorbance at 400 nm, minimum after clearing) [OD] | time to gelation / plateau of hydrogel formation ([3]; time sweep over 4 hours, 0.5% strain, 5 g·L−1) [min] |
| --- | --- | --- | --- | --- | --- | --- | --- | --- |
| Fmoc-Phe-Phe-EG2—COOH [PepA] | 9 | formed a weak hydrogel | 3 | 157 | 42 | – | – | – |
| Fmoc-Phe-Phe-EG6-COOH [PepB] | – | did not form a hydrogel at all | 0 | 1 | 1 | – | – | – |
| Fmoc-Phe-Phe-OH [Fmoc-FF, reference compound] | 16 | rigid and stable | 37 | 9552 | 251 | within a few minutes | 0.1 | ≤ 4 |
